Literature values as cited in patent publication US20090169606A1, “Low Flexural Strength Transdermal Tobacco Alkaloid Patch” (Fertin Pharma, priority 2005, published 2009).

Settings: pure nicotine placed on the skin of an ordinary human being

CN1CCCC1c1cccnc1 (stereo not shown) [nicotine]
lethal dose: 50 mg
